From PubChem BioAssay AID248 (DTP/NCI, 2004)
Values joined by “and” are separate entries in the source; they are usually repeats but may differ in a detail not shown here. Equal values may be shown once. Toxic doses and inconclusive results are not listed.

Tested on: L1210 leukemia ip in BDF1 mice, survival T/C
Assay: NCI In Vivo Anticancer Drug Screen. Data for tumor model L1210 Leukemia (intraperitoneal) in B6D2F1 (BDF1) mice
Details: higher = longer survival
Procedure, shortened: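 Antitumor effect is assessed in tumor-bearing animals. Survival in the compound arm is compared with a vehicle-dosed control arm and expressed as their quotient.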

## CC[C@H]1CN2CCc3cc(OC)c(OC)cc3[C@@H]2C[C@@H]1C[C@H]1NCCc2cc(OC)c(OC)cc21
endpoint: mean survival time, dose: 0.93 mg/kg/injection, schedule: Q04DX003 (ip), vehicle: water
  T/C: 108 % of control
endpoint: mean survival time, dose: 1.0 mg/kg/injection, schedule: Q01DX009 (ip), vehicle: saline
  T/C: 109 % of control
endpoint: mean survival time, dose: 1.75 mg/kg/injection, schedule: Q01DX009 (ip), vehicle: saline
  T/C: 115 % of control and 121 % of control
endpoint: mean survival time, dose: 1.8 mg/kg/injection, schedule: Q01DX009 (ip), vehicle: saline
  T/C: 104 % of control and 120 % of control
endpoint: mean survival time, dose: 1.86 mg/kg/injection, schedule: Q04DX003 (ip), vehicle: water
  T/C: 105 % of control
endpoint: mean survival time, dose: 1.88 mg/kg/injection, schedule: Q01DX001 (ip), vehicle: water
  T/C: 102 % of control
endpoint: mean survival time, dose: 2.0 mg/kg/injection, schedule: Q01DX005 (iv), vehicle: saline
  T/C: 108 % of control
endpoint: mean survival time, dose: 2.0 mg/kg/injection, schedule: Q01DX005 (oral), vehicle: saline
  T/C: 103 % of control
endpoint: mean survival time, dose: 2.0 mg/kg/injection, schedule: Q01DX005 (sc), vehicle: saline
  T/C: 105 % of control
endpoint: mean survival time, dose: 2.0 mg/kg/injection, schedule: Q01DX006 (ip), vehicle: saline
  T/C: 112 % of control
endpoint: mean survival time, dose: 2.0 mg/kg/injection, schedule: Q01DX009 (ip), vehicle: saline
  T/C: 108 % of control
endpoint: mean survival time, dose: 2.0 mg/kg/injection, schedule: Q04DX003 (ip), vehicle: saline
  T/C: 100 % of control
endpoint: mean survival time, dose: 2.0 mg/kg/injection, schedule: Q04DX003 (iv), vehicle: saline
  T/C: 110 % of control
endpoint: mean survival time, dose: 2.0 mg/kg/injection, schedule: Q04DX003 (oral), vehicle: saline
  T/C: 110 % of control
endpoint: mean survival time, dose: 2.0 mg/kg/injection, schedule: Q04DX003 (sc), vehicle: saline
  T/C: 106 % of control
endpoint: mean survival time, dose: 2.0 mg/kg/injection, schedule: Q08DX002 (iv), vehicle: saline
  T/C: 106 % of control
endpoint: mean survival time, dose: 2.0 mg/kg/injection, schedule: Q08DX002 (oral), vehicle: saline
  T/C: 103 % of control
endpoint: mean survival time, dose: 2.5 mg/kg/injection, schedule: Q04DX003 (ip), vehicle: water
  T/C: 104 % of control
endpoint: mean survival time, dose: 3.0 mg/kg/injection, schedule: Q01DX009 (oral), vehicle: saline
  T/C: 112 % of control
endpoint: mean survival time, dose: 3.75 mg/kg/injection, schedule: Q01DX001 (ip), vehicle: water
  T/C: 103 % of control
endpoint: mean survival time, dose: 3.75 mg/kg/injection, schedule: Q04DX003 (ip), vehicle: water
  T/C: 104 % of control
endpoint: mean survival time, dose: 4.0 mg/kg/injection, schedule: Q01DX009 (ip), vehicle: saline
  T/C: 97 % of control
endpoint: mean survival time, dose: 4.0 mg/kg/injection, schedule: Q04DX003 (ip), vehicle: water
  T/C: 113 % of control and 116 % of control and 117 % of control
endpoint: mean survival time, dose: 4.0 mg/kg/injection, schedule: Q04DX003 (iv), vehicle: saline
  T/C: 108 % of control
endpoint: mean survival time, dose: 4.0 mg/kg/injection, schedule: Q04DX003 (oral), vehicle: saline
  T/C: 108 % of control
endpoint: mean survival time, dose: 4.0 mg/kg/injection, schedule: Q04DX003 (sc), vehicle: saline
  T/C: 110 % of control
endpoint: mean survival time, dose: 4.0 mg/kg/injection, schedule: Q08DX002 (ip), vehicle: saline
  T/C: 112 % of control
endpoint: mean survival time, dose: 4.0 mg/kg/injection, schedule: Q08DX002 (oral), vehicle: saline
  T/C: 110 % of control
endpoint: mean survival time, dose: 4.0 mg/kg/injection, schedule: Q08DX002 (sc), vehicle: saline
  T/C: 108 % of control
endpoint: mean survival time, dose: 4.0 mg/kg/injection, schedule: Q## X003 (ip), vehicle: saline
  T/C: 115 % of control
endpoint: mean survival time, dose: 5.0 mg/kg/injection, schedule: Q04DX003 (ip), vehicle: water
  T/C: 109 % of control
endpoint: mean survival time, dose: 6.0 mg/kg/injection, schedule: Q01DX009 (oral), vehicle: saline
  T/C: 108 % of control
endpoint: mean survival time, dose: 6.0 mg/kg/injection, schedule: Q01DX015 (ip), vehicle: saline
  T/C: 102 % of control
endpoint: mean survival time, dose: 7.5 mg/kg/injection, schedule: Q01DX001 (ip), vehicle: water
  T/C: 106 % of control
endpoint: mean survival time, dose: 8.0 mg/kg/injection, schedule: Q01DX006 (ip), vehicle: saline
  T/C: 156 % of control
endpoint: mean survival time, dose: 8.0 mg/kg/injection, schedule: Q04DX003 (ip), vehicle: water
  T/C: 109 % of control and 124 % of control
endpoint: mean survival time, dose: 8.0 mg/kg/injection, schedule: Q04DX003 (iv), vehicle: saline
  T/C: 122 % of control
endpoint: mean survival time, dose: 8.0 mg/kg/injection, schedule: Q04DX003 (oral), vehicle: saline
  T/C: 116 % of control
endpoint: mean survival time, dose: 8.0 mg/kg/injection, schedule: Q04DX003 (sc), vehicle: saline
  T/C: 113 % of control
endpoint: mean survival time, dose: 8.0 mg/kg/injection, schedule: Q08DX002 (ip), vehicle: saline
  T/C: 120 % of control
endpoint: mean survival time, dose: 8.0 mg/kg/injection, schedule: Q08DX002 (oral), vehicle: saline
  T/C: 110 % of control
endpoint: mean survival time, dose: 8.0 mg/kg/injection, schedule: Q08DX002 (sc), vehicle: saline
  T/C: 111 % of control
endpoint: mean survival time, dose: 8.0 mg/kg/injection, schedule: Q## X002 (ip), vehicle: saline
  T/C: 118 % of control
endpoint: mean survival time, dose: 8.0 mg/kg/injection, schedule: Q## X003 (ip), vehicle: saline
  T/C: 123 % of control
endpoint: mean survival time, dose: 8.0 mg/kg/injection, schedule: Q## X008 (ip), vehicle: saline
  T/C: 110 % of control
endpoint: mean survival time, dose: 8.0 mg/kg/injection, schedule: Q## X024 (ip), vehicle: saline
  T/C: 117 % of control
endpoint: mean survival time, dose: 9.0 mg/kg/injection, schedule: Q01DX Z (ip), vehicle: methylcellulose (MC)
  T/C: 92 % of control
endpoint: mean survival time, dose: 10.0 mg/kg/injection, schedule: Q04DX009 (ip), vehicle: water
  T/C: 121 % of control
endpoint: mean survival time, dose: 15.0 mg/kg/injection, schedule: Q01DX001 (ip), vehicle: water
  T/C: 117 % of control
endpoint: mean survival time, dose: 15.0 mg/kg/injection, schedule: Q04DX003 (ip), vehicle: Klucel (hydroxypropylcellulose) (HPC)
  T/C: 152 % of control
endpoint: mean survival time, dose: 15.0 mg/kg/injection, schedule: Q04DX009 (ip), vehicle: water
  T/C: 160 % of control
endpoint: mean survival time, dose: 16.0 mg/kg/injection, schedule: Q01DX001 (ip), vehicle: saline
  T/C: 121 % of control
endpoint: mean survival time, dose: 16.0 mg/kg/injection, schedule: Q04DX003 (ip), vehicle: water
  T/C: 161 % of control
endpoint: mean survival time, dose: 16.0 mg/kg/injection, schedule: Q## X003 (ip), vehicle: saline
  T/C: 171 % of control
endpoint: mean survival time, dose: 20.0 mg/kg/injection, schedule: Q04DX003 (ip), vehicle: Klucel (hydroxypropylcellulose) (HPC)
  T/C: 162 % of control and 164 % of control
endpoint: mean survival time, dose: 20.0 mg/kg/injection, schedule: Q04DX009 (ip), vehicle: water
  T/C: 168 % of control
endpoint: mean survival time, dose: 22.2 mg/kg/injection, schedule: Q01DX001 (ip), vehicle: carboxymethylcellulose (CMC)
  T/C: 102 % of control
endpoint: mean survival time, dose: 25.0 mg/kg/injection, schedule: Q04DX003 (ip), vehicle: saline with Tween-80
  T/C: 164 % of control
endpoint: mean survival time, dose: 25.0 mg/kg/injection, schedule: Q04DX009 (ip), vehicle: water
  T/C: 118 % of control
endpoint: mean survival time, dose: 30.0 mg/kg/injection, schedule: Q04DX003 (ip), vehicle: Klucel (hydroxypropylcellulose) (HPC)
  T/C: 95 % of control and 107 % of control
endpoint: mean survival time, dose: 30.0 mg/kg/injection, schedule: Q04DX003 (ip), vehicle: saline with Tween-80
  T/C: 115 % of control
endpoint: mean survival time, dose: 32.0 mg/kg/injection, schedule: Q04DX003 (ip), vehicle: water
  T/C: 154 % of control
endpoint: mean survival time, dose: 32.0 mg/kg/injection, schedule: Q08DX002 (ip), vehicle: saline
  T/C: 152 % of control
endpoint: mean survival time, dose: 33.35 mg/kg/injection, schedule: Q01DX001 (ip), vehicle: carboxymethylcellulose (CMC)
  T/C: 107 % of control
endpoint: median survival time, dose: 3.75 mg/kg/injection, schedule: Q04DX003 (ip), vehicle: saline
  T/C: 116 % of control
endpoint: median survival time, dose: 4.0 mg/kg/injection, schedule: Q04DX003 (ip), vehicle: saline
  T/C: 103 % of control
endpoint: median survival time, dose: 7.5 mg/kg/injection, schedule: Q04DX003 (ip), vehicle: saline
  T/C: 122 % of control
endpoint: median survival time, dose: 8.0 mg/kg/injection, schedule: Q01DX001 (ip), vehicle: saline
  T/C: 112 % of control
endpoint: median survival time, dose: 15.0 mg/kg/injection, schedule: Q04DX003 (ip), vehicle: saline
  T/C: 161 % of control and 168 % of control
endpoint: median survival time, dose: 16.0 mg/kg/injection, schedule: Q04DX003 (ip), vehicle: saline
  T/C: 166 % of control
endpoint: median survival time, dose: 20.0 mg/kg/injection, schedule: Q04DX003 (ip), vehicle: saline
  T/C: 177 % of control and 179 % of control
endpoint: median survival time, dose: 30.0 mg/kg/injection, schedule: Q04DX003 (ip), vehicle: saline
  T/C: 101 % of control
endpoint: median survival time, dose: 32.0 mg/kg/injection, schedule: Q04DX003 (ip), vehicle: saline
  T/C: 110 % of control
endpoint: median survival time, dose: 40.0 mg/kg/injection, schedule: Q04DX003 (ip), vehicle: saline
  T/C: 69 % of control
